Experimental data published in US11285156B2, “Substituted piperazines as KRAS G12C inhibitors” (Amgen Inc., priority 2018, dated 2022).
Where two headings read alike, the source gives them in different places.

What was measured:
[1] = system: Phosphorylation of ERK1/2 in MIA PaCa-2 cells; experiment: Phospho-ERK1/2 MSD assay in MIA PaCa-2 cells; type: cell-based; conditions: read-out: p-ERK IC50 (2 h, MiaPaCa-2; μM), 2 h compound treatment, MIA PaCa-2 cells, EGF stimulated
In short: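 Phospho-ERK1/2 measured by MSD electrochemiluminescence kit in RIPA lysates of MIA PaCa-2 cells. Cells were treated with compound titrations for 2 or 4 h at 37 °C, 5% CO2, followed by a 10 min pulse of 10 ng/mL EGF.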

[2] = system: Phosphorylation of ERK1/2 in A549 cells; experiment: Phospho-ERK1/2 MSD assay in A549 cells; type: cell-based; conditions: read-out: p-ERK IC50 (2 h, A549; μM), 2 h compound treatment, A549 cells, EGF stimulated
In short: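 Readout: MSD phospho-ERK1/2 signal after compound (2 or 4 h) and 10 min EGF stimulation at 10 ng/mL.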

[3] = molecular target: GDP-bound KRAS protein (aa 1-169), containing both G12C and C118A amino acid substitutions (Homo sapiens (Human), UniProt P01116, C118A/G12C); experiment: Coupled nucleotide exchange assay (SOS-mediated nucleotide exchange, AlphaScreen); type: biochemical; conditions: read-out: Coupled exchange IC50 (5 min; μM); 5 min compound pre-incubation
Chain of GDP-bound KRAS protein (aa 1-169), containing both G12C and C118A amino acid substitutions (P01116 other isoform, or with tags, fused parts or gaps G12C/C118A): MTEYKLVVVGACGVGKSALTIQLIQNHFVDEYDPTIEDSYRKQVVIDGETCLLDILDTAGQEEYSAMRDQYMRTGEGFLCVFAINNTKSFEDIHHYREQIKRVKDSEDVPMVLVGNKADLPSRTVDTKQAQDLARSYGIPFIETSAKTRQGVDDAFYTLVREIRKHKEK

| Structure (SMILES) | IC50 ([1]; Homo sapiens, MIA PaCa-2, 2 h) [µM] | IC50 ([2]; Homo sapiens, A549, 2 h) [µM] | IC50 [3] [µM] | IC50 [1] [µM] | IC50 [2] [µM] |
| --- | --- | --- | --- | --- | --- |
| C=CC(=O)N1C[C@H](C)N(c2nc(=O)n(-c3c(C)ccnc3C(C)C)c3nc(-c4ccccc4NC(=O)C4CC4)c(Cl)cc23)C[C@H]1C (atropisomer, axis not shown; (M)) [Example 129-6, (M)-N-[2-[6-Chloro-4-[(2S,5R)-2,5-dimethyl-4-prop-2-enoyl-piperazin-1-yl]-1-(2-isopropyl-4-methyl-3-pyridyl)-2-oxo-pyrido[2,3-d]pyrimidin-7-yl]phenyl]cyclopropanecarboxamide] | 0.058 | > 7.5 | 0.06 | – | – |
| C=CC(=O)N1C[C@H](C)N(c2nc(=O)n(-c3c(C)ccnc3C(C)C)c3nc(-c4ccccc4NC(=O)OC)c(Cl)cc23)C[C@H]1C (atropisomer, axis not shown; (M)) [Example 129-7, (M)-Methyl-N-[2-[6-chloro-4-[(2S,5R)-2,5-dimethyl-4-prop-2-enoyl-piperazin-1-yl]-1-(2-isopropyl-4-methyl-3-pyridyl)-2-oxo-pyrido[2,3-d]pyrimidin-7-yl]phenyl]carbamate] | 0.025 | > 7.5 | 0.064 | – | – |
| C=CC(=O)N1C[C@H](C)N(c2nc(=O)n(-c3c(C)ccnc3C(C)C)c3nc(-c4c(F)cccc4NC(=O)OC)c(Cl)cc23)C[C@H]1C (atropisomer, axis not shown; (M)) [Example 129-8, (M)-Methyl N-[2-[6-chloro-4-[(2S,5R)-2,5-dimethyl-4-prop-2-enoyl-piperazin-1-yl]-1-(2-isopropyl-4-methyl-3-pyridyl)-2-oxo-pyrido[2,3-d]pyrimidin-7-yl]-3-fluoro-phenyl]carbamate] | 0.023 | > 7.5 | 0.056 | – | – |
| C=CC(=O)N1C[C@H](C)N(c2nc(=O)n(-c3c(C)ccnc3C(C)C)c3nc(-c4c(F)cccc4NC(=O)C4CC4)c(Cl)cc23)C[C@H]1C (atropisomer, axis not shown; (M)) [Example 129-9, (M)-N-[2-[6-Chloro-4-[(2S,5R)-2,5-dimethyl-4-prop-2-enoyl-piperazin-1-yl]-1-(2-isopropyl-4-methyl-3-pyridyl)-2-oxo-pyrido[2,3-d]pyrimidin-7-yl]-3-fluoro-phenyl]cyclopropanecarboxamide] | 0.048 | > 7.5 | 0.008 | – | – |
| C=CC(=O)N1C[C@H](C)N(c2nc(=O)n(-c3c(C)ccnc3C(C)C)c3nc(-c4c(F)cccc4NC(=O)C(F)F)c(Cl)cc23)C[C@H]1C (atropisomer, axis not shown; (M)) [Example 129-10, (M)-N-[2-[6-Chloro-4-[(2S,5R)-2,5-dimethyl-4-prop-2-enoyl-piperazin-1-yl]-1-(2-isopropyl-4-methyl-3-pyridyl)-2-oxo-pyrido[2,3-d]pyrimidin-7-yl]-3-fluoro-phenyl]-2,2-difluoro-acetamide] | 0.049 | > 7.5 | 0.041 | – | – |
| C=CC(=O)N1C[C@H](C)N(c2nc(=O)n(-c3c(C)ccnc3C(C)C)c3nc(-c4ccccc4NC(=O)C(F)F)c(Cl)cc23)C[C@H]1C (atropisomer, axis not shown; (M)) [Example 129-11, (M)-N-[2-[6-Chloro-4-[(2S,5R)-2,5-dimethyl-4-prop-2-enoyl-piperazin-1-yl]-1-(2-isopropyl-4-methyl-3-pyridyl)-2-oxo-pyrido[2,3-d]pyrimidin-7-yl]phenyl]-2,2-difluoro-acetamide] | 0.247 | > 7.5 | 0.152 | – | – |
| C=CC(=O)N1C[C@H](C)N(c2nc(=O)n(-c3c(C)ccnc3C(C)C)c3nc(-c4cc(O)cc5ccccc45)c(Cl)cc23)C[C@H]1C (atropisomer, axis not shown; (M)) [Example 132-1, (M)-6-Chloro-4-[(2S,5R)-2,5-dimethyl-4-prop-2-enoyl-piperazin-1-yl]-7-(3-hydroxy-1-naphthyl)-1-(2-isopropyl-4-methyl-3-pyridyl)pyrido[2,3-d]pyrimidin-2-one] | – | – | 0.053 | 0.46 | > 7.5 |
| C=CC(=O)N1CCN(c2nc(=O)n(-c3c(C)ccnc3C(C)C)c3nc(-c4c(N)cccc4F)c(Cl)cc23)CC1CC#N (atropisomer, axis not shown; (M)) [Example 144-1, (M)-2-[4-[7-(2-Amino-6-fluoro-phenyl)-6-chloro-1-(2-isopropyl-4-methyl-3-pyridyl)-2-oxo-pyrido[2,3-d]pyrimidin-4-yl]-1-prop-2-enoyl-piperazin-2-yl]acetonitrile] | – | – | 0.166 | 0.23 | > 7.5 |
| C=CC(=O)N1CCN(c2nc(=O)n(-c3c(C)ccnc3C(C)C)c3nc(Cl)c(Cl)cc23)CC1CC#N (atropisomer, axis not shown; (M)) [Example 144-2-2, (M)-2-[4-[6,7-Dichloro-1-(2-isopropyl-4-methyl-3-pyridyl)-2-oxo-pyrido[2,3-d]pyrimidin-4-yl]-1-prop-2-enoyl-piperazin-2-yl]acetonitrile] | 3.1 | 4 | 9.13 | – | – |
| C=CC(=O)N1CCN(c2nc(=O)n(-c3c(C)ccnc3C(C)C)c3nc(-c4c(O)cccc4F)c(Cl)cc23)CC1CC#N (atropisomer, axis not shown; (M)) [Example 144-3, (M)-2-[4-[6-Chloro-7-(2-fluoro-6-hydroxy-phenyl)-1-(2-isopropyl-4-methyl-3-pyridyl)-2-oxo-pyrido[2,3-d]pyrimidin-4-yl]-1-prop-2-enoyl-piperazin-2-yl]acetonitrile] | 2.41 | > 7.5 | 0.166 | – | – |
| C=CC(=O)N1CCN(c2nc(=O)n(-c3c(C)ccnc3C(C)C)c3nc(-c4ccccc4F)c(Cl)cc23)CC1CC#N (atropisomer, axis not shown; (M)) [Example 145-2, (M)-2-[4-[6-Chloro-7-(2-fluorophenyl)-1-(2-isopropyl-4-methyl-3-pyridyl)-2-oxo-pyrido[2,3-d]pyrimidin-4-yl]-1-prop-2-enoyl-piperazin-2-yl]acetonitrile] | – | > 7.5 | 0.344 | 1.68 | – |
| C=CC(=O)N1CCN(c2nc(=O)n(-c3c(C)ccnc3C(C)C)c3nc(-c4ccccc4F)c(Cl)cc23)CC1CC#N (atropisomer, axis not shown; (M)) [Example 145-2-1, (M)-2-[4-[6-Chloro-7-(2-fluorophenyl)-1-(2-isopropyl-4-methyl-3-pyridyl)-2-oxo-pyrido[2,3-d]pyrimidin-4-yl]-1-prop-2-enoyl-piperazin-2-yl]acetonitrile] | – | – | 0.294 | 0.356 | > 7.5 |
| C=CC(=O)N1CCN(c2nc(=O)n(-c3c(C)ccnc3C(C)C)c3nc(-c4ccccc4F)c(Cl)cc23)CC1CC#N (atropisomer, axis not shown; (M)) [Example 145-2-2, (M)-2-[4-[6-Chloro-7-(2-fluorophenyl)-1-(2-isopropyl-4-methyl-3-pyridyl)-2-oxo-pyrido[2,3-d]pyrimidin-4-yl]-1-prop-2-enoyl-piperazin-2-yl]acetonitrile] | – | – | 0.238 | 0.213 | > 7.5 |
| C=CC(=O)N1C[C@H](C)N(c2nc(=O)n3c4nc(c(Cl)cc24)-c2ccccc2C/C=C/Cc2cccc(C(C)C)c2-3)C[C@H]1C (atropisomer, axis not shown; (M)) [Example 146-2, (M)-(9Z)-19-Chloro-22-((2S,5R)-2,5-dimethyl-4-(2-propenoyl)-1-piperazinyl)-3-(2-propanyl)-1,23,26-triazapentacyclo[16.6.2.0~2,7~.0~12,17~.0~21,25~]hexacosa-2,4,6,9,12,14,16,18,20,22,25-undecaen-24-one, (M)-19-chloro-22-((2S,5R)-2,5-dimethyl-4-(2-propenoyl)-1-piperazinyl)-3-(2-propanyl)-1,23,26-triazapentacyclo[16.6.2.0~2,7~.0~12,17~.0~21,25~]hexacosa-2,4,6,9,12,14,16,18,20,22,25-undecaen-24-one] | 0.038 | 6.51 | 0.028 | – | – |
| C=CC(=O)N1CCN(c2nc(=O)n(-c3c(C)ccnc3C(C)C)c3nc(-c4ccccc4F)c(Cl)cc23)C2CC21 (atropisomer, axis not shown; (M)) [Example 222, (M)-4-(5-Acryloyl-2,5-diazabicyclo[4.1.0]heptan-2-yl)-6-chloro-7-(2-fluorophenyl)-1-(2-isopropyl-4-methylpyridin-3-yl)pyrido[2,3-d]pyrimidin-2(1H)-one] | – | – | 0.705 | 0.057 | 2.71 |
| C=CC(=O)N1CCN(c2nc(=O)n(-c3c(C)ccnc3C(C)C)c3nc(-c4ccccc4F)c(Cl)cc23)[C@H]2C[C@H]21 (atropisomer, axis not shown; (M)) [Example 222-2, (M)-4-((1S,6R)-5-acryloyl-2,5-diazabicyclo[4.1.0]heptan-2-yl)-6-chloro-7-(2-fluorophenyl)-1-(2-isopropyl-4-methylpyridin-3-yl)pyrido[2,3-d]pyrimidin-2(1H)-one] | – | – | 0.014 | 0.048 | 2.52 |
